# According to EP1285920A1, “C10 Ester sustituted taxanes as antitumor agents” (Florida State University Research Foundation, Inc., priority 2001, dated 2003):
# Read-outs that look alike come from different tables or passages of the source.
# Columns and labels:
# HCT116 = experiment: In Vitro cytotoxicity measured by the cell colony formation assay; format: cell-based, human; settings: Homo sapiens, HCT-116; read-out: IN VITRO ID 50 HCT116
# Outline: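 Four hundred cells per dish in McCoy's 5a medium with 10% FBS were allowed to attach for 5 h at 37 °C. They were then exposed to compound for 72 h at 37 °C, added as a 10× stock made fresh in medium. After HBSS rinsing and refeeding, colonies were counted after 7 days.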
# MX-1 carcinoma = settings: for Toxic Deaths: mg/kg: Taxol 36 (split dose), 0503 72.6, 0536 49, 0663 159, 0670 123, 0687 159, 0706 108, 0908 159, 0947 76.9, 0951 72.6, 0983 67.4, 0999 49, 1003 49, 1011 108
# Experimental: Thirteen antitumor compounds were formulated for an i.v. dosing regime (single i.v. bolus, qd x 1 schedule) prepared in the following vehicle: 5% ethanol, 5% Cremophor and 90% isotonic saline.
# (§1) The antitumor compounds were given intravenously in a single maximum tolerated dose (MTD) appropriate for each compound. […] The MTDs for the antitumor compounds were calculated from earlier single dose data for mice receiving i.v. administration of these compounds. All vehicle control animals in the split dosing regimes were dosed twice intravenously with half the total volume being given separated by one hour. The study was terminated on Day 60.
# A complete response is obtained if the tumor is not palpable at the end of the study. […]
# A2780 ovarian carcinoma = settings: for MDS: i.v. qd x 1 (compounds estimated MTD; Taxol 24 mg/kg split; Taxotere 70 mg/kg), days until tumor 2.0 g, ended Day 60; for MDS (n): mean days of survival until neoplasm reached 2.0 g, terminated Day 60; for Complete Response / Partial Respons / Stable Disease / Survivors: Day 60; for Mean Score: tumor scoring system
# Experimental: Dosing was initiated on Day 1. […] Taxotere was given i.v. on a qd x 1 schedule at a dose of 70 mg/kg. […] The study was terminated on Day 60. Treatment groups are detailed in Table 7.
# HCT116 carcinoma = settings: for Toxic Deaths: mg/kg: Taxol 36 (split doses), 0503 72.6, 0536 49, 0663 159, 0670 123, 0687 159, 0706 108, 0908 159, 0947 76.9, 0951 72.6, 0983 72.6, 0999 49, 1003 49, 1011 108
# Experimental: Antitumor compounds were formulated for an i.v. dosing regime and were prepared in the following vehicle: 5% ethanol, 5% Cremophor and 90% isotonic saline.
# as §1, with “half of” for “half”
# A complete response is obtained if the tumor is not palpable at the end of the study.
# [1] = i.v. qd x 1 at MTD, 6 mice/group, Day 60, doses as in E17
# [2] = number of 6 mice, tumor did not reach 2.0 g by end of study, i.v. qd x 1 at MTD, Day 60, doses as in E17
# [3] = number of 6 mice, tumor not palpable at end of study, i.v. qd x 1 at MTD, Day 60, doses as in E17
# [4] = number of 6 mice, tumor smaller than on Day 1, i.v. qd x 1 at MTD, Day 60, doses as in E17
# [5] = number of 6 mice, i.v. qd x 1 at MTD, Day 60, doses as in E17
# [6] = number of 6 mice, i.v. qd x 1 at MTD, Day 60
# [7] = i.v. qd x 1 at estimated MTD (Taxol 24 mg/kg, Taxotere 70 mg/kg, 0983 72.6 mg/kg), 5 mice/group (Taxotere 6)
# [8] = number of mice, i.v. qd x 1 at estimated MTD (Taxol 24 mg/kg, Taxotere 70 mg/kg, 0983 72.6 mg/kg), 5 mice/group (Taxotere 6)
# [9] = i.v. qd x 1 at MTD, 5 mice/group, Day 60, doses as in E3
# [10] = number of 5 mice, tumor did not reach 2.0 g by end of study, i.v. qd x 1 at MTD, Day 60, doses as in E3
# [11] = number of 5 mice, tumor not palpable at end of study, i.v. qd x 1 at MTD, Day 60, doses as in E3
# [12] = number of 5 mice, tumor smaller than on Day 1, i.v. qd x 1 at MTD, Day 60, doses as in E3
# [13] = number of 5 mice, i.v. qd x 1 at MTD, Day 60, doses as in E3
# [14] = number of 5 mice, i.v. qd x 1 at MTD, Day 60
# [15] = A2780, i.v. qd x 1, five mice per group
compound,measurement,setting,value
CCC(=O)O[C@H]1C(=O)[C@@]2(C)[C@H]([C@H](OC(=O)c3ccccc3)[C@]3(O)C[C@H](OC(=O)[C@H](O)[C@@H](NC(=O)OC(C)(C)C)c4ccco4)C(C)=C1C3(C)C)[C@]1(OC(C)=O)CO[C@@H]1C[C@@H]2O [Compound 0536],IC50,HCT116,< 1 nM
same,antitumor activity / tumor response,"MX-1 carcinoma; MX-1, i.v. qd x 1, Day 60",complete and durable tumor regressions in all the treated mice
same,Mean Score,MX-1 carcinoma; [1],6.7 ± 2.1
same,Stable Disease,MX-1 carcinoma; [2],0
same,Complete Response,MX-1 carcinoma; [3],4
same,Partial Response,MX-1 carcinoma; [4],0
same,Survivors,MX-1 carcinoma; [5],4
same,Toxic Deaths,MX-1 carcinoma; [6],2
same,antitumor activity,"A2780 ovarian carcinoma; A2780, i.v. qd x 1","did not cause any complete responses, partial responses, or cases of stable disease"
same,MDS,A2780 ovarian carcinoma; A2780,42.6 days
same,MDS (n),A2780 ovarian carcinoma; [7],42.6 ± 3.3 (5) days
same,Toxic Deaths,A2780 ovarian carcinoma; [8],0
same,Complete Response,A2780 ovarian carcinoma; [8],0
same,Partial Respons,A2780 ovarian carcinoma; [8],0
same,Stable Disease,A2780 ovarian carcinoma; [8],0
same,Survivors,A2780 ovarian carcinoma; [8],0
same,Mean Score,A2780 ovarian carcinoma; [7],3 ± 0
same,Mean Score,HCT116 carcinoma; [9],9.2 ± 0.2
same,Stable Disease,HCT116 carcinoma; [10],0
same,Complete Response,HCT116 carcinoma; [11],1
same,Partial Response,HCT116 carcinoma; [12],4
same,Survivors,HCT116 carcinoma; [13],5
same,Toxic Deaths,HCT116 carcinoma; [14],0
CCC(=O)O[C@H]1C(=O)[C@@]2(C)[C@H]([C@H](OC(=O)c3ccccc3)[C@]3(O)C[C@H](OC(=O)[C@H](O)[C@@H](NC(=O)c4ccccc4)c4ccco4)C(C)=C1C3(C)C)[C@]1(OC(C)=O)CO[C@@H]1C[C@@H]2O [Compound 0663],IC50,HCT116,< 1 nM
same,Partial Response,MX-1 carcinoma; iv,0
same,Complete Response,"MX-1 carcinoma; iv, 1440 h",4
same,Mean Score,"MX-1 carcinoma; iv, 1440 h",7.7 ± 1.5
same,Stable Disease,"MX-1 carcinoma; iv, 1440 h",1
same,Survivors,MX-1 carcinoma; [5],5
same,Toxic Deaths,MX-1 carcinoma; [6],0
same,survival extension compared to Group 1 controls,"A2780 ovarian carcinoma; A2780, i.v. qd x 1",214%
same,total response rate,A2780 ovarian carcinoma; [15],at least 20%
same,Partial Response,HCT116 carcinoma; iv,2
same,Complete Response,"HCT116 carcinoma; iv, 1440 h",2
same,Mean Score,"HCT116 carcinoma; iv, 1440 h",7.6 ± 1.9
same,Stable Disease,"HCT116 carcinoma; iv, 1440 h",0
same,Survivors,HCT116 carcinoma; [13],4
same,Toxic Deaths,HCT116 carcinoma; [14],1
CCC(=O)OC1C(=O)C2(C)C(O)CC3OCC3(OC(C)=O)C2C(OC(=O)c2ccccc2)C2(O)CC(OC(=O)C(O)C(NC(=O)c3ccccc3)c3cccs3)C(C)=C1C2(C)C (centres unmarked) [Compound 0687],Survivors,MX-1 carcinoma; [5],5
same,Survivors,A2780 ovarian carcinoma; [8],0
same,Survivors,HCT116 carcinoma; [13],5
CC(=O)O[C@@]12CO[C@@H]1C[C@H](O)[C@@]1(C)C(=O)[C@H](OC(=O)C3CC3)C3=C(C)[C@@H](OC(=O)[C@H](O)[C@@H](NC(=O)c4ccccc4)c4ccco4)C[C@@](O)([C@@H](OC(=O)c4ccccc4)[C@H]21)C3(C)C [Compound 0908],IC50,HCT116,< 1 nM
same,treated animals with durable complete responses and partial responses,"MX-1 carcinoma; MX-1, single i.v. MTD",100%
same,Mean Score,MX-1 carcinoma; [1],9.7 ± 0.3
same,Stable Disease,MX-1 carcinoma; [2],0
same,Complete Response,MX-1 carcinoma; [3],5
same,Partial Response,MX-1 carcinoma; [4],1
same,Survivors,MX-1 carcinoma; [5],6
same,Toxic Deaths,MX-1 carcinoma; [6],0
same,survival extension compared to Group 1 controls,"A2780 ovarian carcinoma; A2780, i.v. qd x 1",268%
same,MDS,A2780 ovarian carcinoma; A2780,43.1 days
same,Toxic Deaths,A2780 ovarian carcinoma; [15],one
same,total response rate,A2780 ovarian carcinoma; [15],at least 20%
same,MDS (n),A2780 ovarian carcinoma; [7],43.1 ± 8.0 (2) days
same,Toxic Deaths,A2780 ovarian carcinoma; [8],1
same,Complete Response,A2780 ovarian carcinoma; [8],0
same,Partial Respons,A2780 ovarian carcinoma; [8],1
same,Stable Disease,A2780 ovarian carcinoma; [8],1
same,Survivors,A2780 ovarian carcinoma; [8],2
same,Mean Score,A2780 ovarian carcinoma; [7],3.8 ± 1.5
same,Mean Score,HCT116 carcinoma; [9],9.2 ± 0.2
same,Stable Disease,HCT116 carcinoma; [10],0
same,Complete Response,HCT116 carcinoma; [11],1
same,Partial Response,HCT116 carcinoma; [12],4
same,Survivors,HCT116 carcinoma; [13],5
same,Toxic Deaths,HCT116 carcinoma; [14],0
CC(=O)O[C@@]12CO[C@@H]1C[C@H](O)[C@@]1(C)C(=O)[C@H](OC(=O)C3CC3)C3=C(C)[C@@H](OC(=O)[C@H](O)[C@H](C=C(C)C)NC(=O)OCC(C)C)C[C@@](O)([C@@H](OC(=O)c4ccccc4)[C@H]21)C3(C)C [Compound 4720],IC50,HCT116,< 10 nM
CCC(=O)O[C@H]1C(=O)[C@@]2(C)[C@H]([C@H](OC(=O)c3ccccc3)[C@]3(O)C[C@H](OC(=O)[C@H](O)[C@@H](NC(=O)OCC(C)C)C4CC4)C(C)=C1C3(C)C)[C@]1(OC(C)=O)CO[C@@H]1C[C@@H]2O [Compound 4799],IC50,HCT116,< 1 nM
CCCC(=O)O[C@H]1C(=O)[C@@]2(C)[C@H]([C@H](OC(=O)c3ccccc3)[C@]3(O)C[C@H](OC(=O)[C@H](O)[C@@H](NC(=O)OCC(C)C)C4CC4)C(C)=C1C3(C)C)[C@]1(OC(C)=O)CO[C@@H]1C[C@@H]2O [Compound 4808],IC50,HCT116,< 10 nM
CCCC(=O)O[C@H]1C(=O)[C@@]2(C)[C@H]([C@H](OC(=O)c3ccccc3)[C@]3(O)C[C@H](OC(=O)[C@H](O)[C@@H](NC(=O)OCC(C)C)c4ccsc4)C(C)=C1C3(C)C)[C@]1(OC(C)=O)CO[C@@H]1C[C@@H]2O [Compound 4834],IC50,HCT116,< 10 nM
C/C=C/C(=O)N[C@@H](c1ccoc1)[C@@H](O)C(=O)O[C@H]1C[C@@]2(O)[C@@H](OC(=O)c3ccccc3)[C@@H]3[C@]4(OC(C)=O)CO[C@@H]4C[C@H](O)[C@@]3(C)C(=O)[C@H](OC(=O)CC)C(=C1C)C2(C)C [Compound 4888],IC50,HCT116,< 1 nM
C/C=C/C(=O)N[C@@H](c1ccoc1)[C@@H](O)C(=O)O[C@H]1C[C@@]2(O)[C@@H](OC(=O)c3ccccc3)[C@@H]3[C@]4(OC(C)=O)CO[C@@H]4C[C@H](O)[C@@]3(C)C(=O)[C@H](OC(=O)CCC)C(=C1C)C2(C)C [Compound 4919],IC50,HCT116,< 1 nM
CC=CC(=O)NC(c1ccoc1)C(O)C(=O)OC1CC2(O)C(OC(=O)c3ccccc3)C3C4(OC(C)=O)COC4CC(O)C3(C)C(=O)C(OC(=O)C3CC3)C(=C1C)C2(C)C (centres unmarked) [Compound 4944],IC50,HCT116,< 1 nM
CC(=O)OC12COC1CC(O)C1(C)C(=O)C(OC(=O)C3CC3)C3=C(C)C(OC(=O)C(O)C(NC(=O)OCC(C)C)c4ccsc4)CC(O)(C(OC(=O)c4ccccc4)C21)C3(C)C (centres unmarked) [Compound 5011],IC50,HCT116,< 10 nM
CC=CC(=O)NC(c1ccsc1)C(O)C(=O)OC1CC2(O)C(OC(=O)c3ccccc3)C3C4(OC(C)=O)COC4CC(O)C3(C)C(=O)C(OC(=O)C3CC3)C(=C1C)C2(C)C (centres unmarked) [Compound 5040],IC50,HCT116,< 1 nM
CCC(=O)OC1C(=O)C2(C)C(O)CC3OCC3(OC(C)=O)C2C(OC(=O)c2ccccc2)C2(O)CC(OC(=O)C(O)C(C=C(C)C)NC(=O)OCC(C)C)C(C)=C1C2(C)C (centres unmarked) [Compound 5065],IC50,HCT116,< 10 nM
CCCC(=O)OC1C(=O)C2(C)C(O)CC3OCC3(OC(C)=O)C2C(OC(=O)c2ccccc2)C2(O)CC(OC(=O)C(O)C(C=C(C)C)NC(=O)OCC(C)C)C(C)=C1C2(C)C (centres unmarked) [Compound 5144],IC50,HCT116,< 10 nM
CC(=O)OC12COC1CC(O)C1(C)C(=O)C(OC(=O)C3CC3)C3=C(C)C(OC(=O)C(O)C(NC(=O)OCC(C)C)C4CC4)CC(O)(C(OC(=O)c4ccccc4)C21)C3(C)C (centres unmarked) [Compound 5232],IC50,HCT116,< 10 nM
CCC(=O)OC1C(=O)C2(C)C(O)CC3OCC3(OC(C)=O)C2C(OC(=O)c2ccccc2)C2(O)CC(OC(=O)C(O)C(NC(=O)OC(C)(C)C)c3ccoc3)C(C)=C1C2(C)C (centres unmarked) [Compound 5495],IC50,HCT116,< 1 nM
CCC(=O)OC1C(=O)C2(C)C(O)CC3OCC3(OC(C)=O)C2C(OC(=O)c2ccccc2)C2(O)CC(OC(=O)C(O)C(NC(=O)OC(C)(C)CC)c3ccco3)C(C)=C1C2(C)C (centres unmarked) [Compound 6522],IC50,HCT116,< 1 nM
